The values that follow come from patent US12491178B2, “Stable pharmaceutical compositions of edaravone” (Slayback Pharma LLC, priority 2023, dated 2025).

A short description of series [1]: Solubility of edaravone in solubility enhancing agents. The format is physicochemical. From the text:
The table below, illustrates the best possible solubilizing agents that are utilized in the present invention.

For series [2] the following is noted: cited from earlier work.

Consider `CC1=NN(c2ccccc2)C(=O)C1` [edaravone, 3-methy-1-phenyl-2-pyrazolin-5-one], for which the Solubility in series [1] (in Alcohol) is 52.27 mg/gm; in series [1] (in CCMG 400 LQ (Mixture of caprylocaproyl polyoxylglycerides)), 14.36 mg/gm; in series [1] (in Capryol 90 (Propylene Glycol Monocaprylate)), 15.8 mg/gm; in series [1] (in Capryol 90 + Ethanol (50:50)), 65.0 mg/gm; in series [1] (in Castor Oil) it was 7.9 mg/gm; in series [1] (in Castor oil + Ethanol (50:50)), 72.2 mg/gm. In addition, the Solubility amounted to 2.1 mg/gm in series [1] (in Cotton seed oil); 13.59 mg/gm in series [1] (in Imwitor 988 (Ester of caprylic acid and glycerol)); 8.61 mg/gm in series [1] (in Kollisolv MCT 70); 6.9 mg/gm in series [1] (in Labrafil M 1944 (Oleoyl polyoxyl-6 glycerides)); 9.10 mg/gm in series [1] (in Labrafil M 2125 (Linoleoyl Polyoxyl-6 glycerides)); 25.1 mg/gm in series [1] (in Labrasol ALF (Caprylocaproyl Polyoxyl-8 glycerides), edaravone dissolved per gram of agent). For the same compound, the Solubility in series [1] (in Labrasol ALF + Ethanol (50:50)) was found to be 78.8 mg/gm; in series [1] (in Lauroglycol 90 (Propylene glycol monolaurate)), 8.1 mg/gm; in series [1] (in Miglyol 812 (Triester of caprylic and capric acid)), 11.26 mg/gm; in series [1] (in PEG 300 (polyethylene glycol)) it was 26.4 mg/gm; in series [1] (in PEG 300 + Ethanol (50:50)) it was 66.3 mg/gm; in series [1] (in Peanut oil), 1.7 mg/gm. Moreover, the values for the Solubility in series [1] (in Peppermint Oil), in series [1] (in Peppermint Oil + Ethanol (50:50)) and in series [1] (in Polysorbate 20) were 37.6 mg/gm, 72.8 mg/gm and 17.7 mg/gm, respectively. The “oral bioavailability (Fabs)” value in series [2] is 5.23%.
